Data: patent US20250206730A1 (AUTOTELIC BIO INC., priority 2022, published 2025)

Key:
ALK5 kinase = target: T1, ALK5 kinase (Homo sapiens, UniProt P36897); test: LanthaScreen Eu Kinase Binding Assay; conditions: Kinase Tracer 178, Eu-anti-GST Antibody, read-out: IC50 Enzyme
T1 sequence (P36897 34-503): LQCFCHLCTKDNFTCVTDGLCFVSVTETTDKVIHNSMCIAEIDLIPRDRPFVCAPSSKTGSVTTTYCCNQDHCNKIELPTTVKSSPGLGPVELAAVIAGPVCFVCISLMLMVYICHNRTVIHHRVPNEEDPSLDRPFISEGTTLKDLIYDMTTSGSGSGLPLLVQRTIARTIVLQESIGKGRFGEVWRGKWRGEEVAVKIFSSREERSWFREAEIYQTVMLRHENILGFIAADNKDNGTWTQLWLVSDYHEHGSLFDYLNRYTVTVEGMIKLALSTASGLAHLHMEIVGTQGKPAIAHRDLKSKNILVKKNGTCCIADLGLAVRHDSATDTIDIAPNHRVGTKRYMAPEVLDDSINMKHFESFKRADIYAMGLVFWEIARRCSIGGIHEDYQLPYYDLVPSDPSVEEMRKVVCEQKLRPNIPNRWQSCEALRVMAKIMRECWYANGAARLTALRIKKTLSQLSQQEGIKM
Outline: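 Compound (1% DMSO final) preincubated 30 min at RT with GST-tagged ALK5, then Eu-anti-GST antibody and Kinase Tracer 178 added for 60 min at RT. TR-FRET read at 340 nm excitation; 665/615 nm emission ratio falls as compound binding rises.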

TGF-β signaling = test: Assay for evaluating cellular inhibition of TGF-β signaling, 4T1 (SBE-luc2P) luciferase reporter; format: cell-based; conditions: Mus musculus, 4T1, 4T1 (SBE-luc2P) transient pool, 0.2% FBS, 2 h pre-treatment, TGF-β1 2 ng/mL 24 h; read-out: IC50 4T1 Cell
Outline: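 4T1 cells transiently carrying SBE-luc2P (6×10^3/well, 0.2% FBS, ~60% confluence) or HEK293 SBE-reporter stable cells (2.5×10^4/well, 0.5% FBS, ~80% confluence) pre-treated with compound for 2 h. TGF-β1 (2 ng/mL) then added for 24 h at 37 °C; luciferase luminescence read from lysates.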

Row | Structure (SMILES) | IC50 (ALK5 kinase) | IC50 (TGF-β signaling)
1 | CNC(=O)c1ccc(Nc2cc(Oc3sc(C4CCCC4)nc3-c3ccccc3)ccn2)nc1 [A-176, 6-((4-((2-Cyclopentyl-4-phenylthiazol-5-yl)oxy)pyridin-2-yl)amino)-N-methylnicotinamide] | > 100 nM | > 100 nM
2 | NC(=O)c1ccc(Nc2cc(Oc3sc(C4CCCCC4)nc3-c3ccccc3)ccn2)nc1 [A-177, 6-((4-((2-Cyclohexyl-4-phenylthiazol-5-yl)oxy)pyridin-2-yl)amino)nicotinamide] | > 100 nM | > 100 nM
3 | O=C(O)c1ccc(Nc2cc(Oc3sc(C4CCCCC4)nc3-c3ccccc3)ccn2)nc1 [A-178, 6-((4-((2-cyclohexyl-4-phenylthiazol-5-yl)oxy)pyridin-2-yl)amino)nicotinic acid] | > 100 nM | > 100 nM
4 | O=C(O)c1ccc(Nc2cc(Oc3sc(C4CCCCC4)nc3-c3ccccc3)ccn2)cc1 [A-179, 4-((4-((2-Cyclohexyl-4-phenylthiazol-5-yl)oxy)pyridin-2-yl)amino)benzoic acid] | > 100 nM | > 100 nM
5 | CNC(=O)c1ccc(Nc2cc(Oc3sc(C4CCCCC4)nc3-c3ccccc3)ccn2)nc1 [A-180, 6-((4-((2-Cyclohexyl-4-phenylthiazol-5-yl)oxy)pyridin-2-yl)amino)-N-methylnicotinamide] | > 100 nM | > 100 nM
6 | CCc1nc(-c2ccccc2)c(Oc2ccnc(Nc3cccc(S(N)(=O)=O)c3)c2)s1 [A-181, 3-((4-((2-Ethyl-4-phenylthiazol-5-yl)oxy)pyridin-2-yl)amino)benzenesulfonamide] | < 100 nM | < 100 nM
7 | CCc1nc(-c2ccccc2)c(Oc2ccnc(Nc3cccc(C(C)(C)O)c3)c2)s1 [A-182, 2-(3-((4-((2-Ethyl-4-phenylthiazol-5-yl)oxy)pyridin-2-yl)amino)phenyl)propan-2-ol] | < 100 nM | > 100 nM
8 | CCc1nc(-c2ccccc2)c(Oc2ccnc(Nc3cccc(C(N)=O)c3)c2)s1 [A-183, 3-((4-((2-Ethyl-4-phenylthiazol-5-yl)oxy)pyridin-2-yl)amino)benzamide] | < 100 nM | < 100 nM
9 | CCc1nc(-c2ccccc2)c(Oc2ccnc(Nc3ccc(S(N)(=O)=O)cc3)c2)s1 [A-184, 4-((4-((2-Ethyl-4-phenylthiazol-5-yl)oxy)pyridin-2-yl)amino)benzenesulfonamide] | < 100 nM | > 100 nM
10 | CCc1nc(-c2ccccc2)c(Oc2ccnc(Nc3ccc(C(N)=O)cc3)c2)s1 [A-185, 4-((4-((2-Ethyl-4-phenylthiazol-5-yl)oxy)pyridin-2-yl)amino)benzamide] | < 100 nM | > 100 nM
11 | CCc1nc(-c2ccccc2)c(Oc2ccnc(Nc3ccnc(C(C)(C)O)c3)c2)s1 [A-186, 2-(4-((4-((2-Ethyl-4-phenylthiazol-5-yl)oxy)pyridin-2-yl)amino)pyridin-2-yl)propan-2-ol] | < 100 nM | < 100 nM
12 | CCc1nc(-c2ccccc2)c(Oc2ccnc(Nc3ccc(C(C)(C)O)nc3)c2)s1 [A-187, 2-(5-((4-((2-Ethyl-4-phenylthiazol-5-yl)oxy)pyridin-2-yl)amino)pyridin-2-yl)propan-2-ol] | < 100 nM | > 100 nM
13 | CCc1nc(-c2ccccc2)c(Oc2ccnc(Nc3cccc(NS(=O)(=O)CC)c3)c2)s1 [A-188, N-(3-((4-((2-Ethyl-4-phenylthiazol-5-yl)oxy)pyridin-2-yl)amino)phenyl)ethanesulfonamide] | < 100 nM | < 100 nM
14 | CCc1nc(-c2ccccc2)c(Oc2ccnc(Nc3ccc(C(=O)NC)cc3)c2)s1 [A-189, 4-((4-((2-Ethyl-4-phenylthiazol-5-yl)oxy)pyridin-2-yl)amino)-N-methylbenzamide] | < 100 nM | < 100 nM
15 | CCc1nc(-c2ccccc2)c(Oc2ccnc(Nc3ccc(C(N)=O)cn3)c2)s1 [A-190, 6-((4-((2-Ethyl-4-phenylthiazol-5-yl)oxy)pyridin-2-yl)amino)nicotinamide] | < 100 nM | < 100 nM
16 | CCc1nc(-c2ccccc2)c(Oc2ccnc(Nc3ccc(C(=O)O)cn3)c2)s1 [A-192, 6-((4-((2-Ethyl-4-phenylthiazol-5-yl)oxy)pyridin-2-yl)amino)nicotinic acid] | < 100 nM | < 100 nM
17 | CCc1nc(-c2ccccc2)c(Oc2ccnc(Nc3ccc(C(=O)NC)cn3)c2)s1 [A-193, 6-((4-((2-Ethyl-4-phenylthiazol-5-yl)oxy)pyridin-2-yl)amino)-N-methylnicotinamide] | < 100 nM | < 100 nM

Row | Structure (SMILES) | IC50 (ALK5 kinase) | IC50 (TGF-β signaling)
18 | CCc1nc(-c2ccccc2)c(Oc2ccnc(Nc3cccc(C(=O)O)c3)c2)s1 [A-194, 3-((4-((2-Ethyl-4-phenylthiazol-5-yl)oxy)pyridin-2-yl)amino)benzoic acid] | < 100 nM | > 100 nM
19 | CCc1nc(-c2ccccc2)c(Oc2ccnc(Nc3ccc(C(=O)O)cc3)c2)s1 [A-195, 4-((4-((2-Ethyl-4-phenylthiazol-5-yl)oxy)pyridin-2-yl)amino)benzoic acid] | < 100 nM | < 100 nM
20 | CC(C)c1nc(-c2ccccc2)c(Oc2ccnc(Nc3cccc(C(=O)O)n3)c2)s1 [A-217, 6-((4-((2-Isopropyl-4-phenylthiazol-5-yl)oxy)pyridin-2-yl)amino)picolinic acid] | > 100 nM | > 100 nM
21 | CC(C)c1nc(-c2ccccc2)c(Oc2ccnc(Nc3cccc(S(N)(=O)=O)c3)c2)s1 [A-218, 3-((4-((2-Isopropyl-4-phenylthiazol-5-yl)oxy)pyridin-2-yl)amino)benzenesulfonamide] | > 100 nM | > 100 nM
22 | CC(C)c1nc(-c2ccccc2)c(Oc2ccnc(Nc3cccc(C(C)(C)O)c3)c2)s1 [A-219, 2-(3-((4-((2-Isopropyl-4-phenylthiazol-5-yl)oxy)pyridin-2-yl)amino)phenyl)propan-2-ol] | > 100 nM | > 100 nM
23 | CC(C)c1nc(-c2ccccc2)c(Oc2ccnc(Nc3cccc(C(N)=O)c3)c2)s1 [A-220, 3-((4-((2-Isopropyl-4-phenylthiazol-5-yl)oxy)pyridin-2-yl)amino)benzamide] | < 100 nM | > 100 nM
24 | CC(C)c1nc(-c2ccccc2)c(Oc2ccnc(Nc3ccc(S(N)(=O)=O)cc3)c2)s1 [A-221, 4-((4-((2-Isopropyl-4-phenylthiazol-5-yl)oxy)pyridin-2-yl)amino)benzenesulfonamide] | < 100 nM | > 100 nM
25 | CC(C)c1nc(-c2ccccc2)c(Oc2ccnc(Nc3ccc(C(N)=O)cc3)c2)s1 [A-222, 4-((4-((2-Isopropyl-4-phenylthiazol-5-yl)oxy)pyridin-2-yl)amino)benzamide] | > 100 nM | > 100 nM
26 | CC(C)c1nc(-c2ccccc2)c(Oc2ccnc(Nc3ccnc(C(C)(C)O)c3)c2)s1 [A-223, 2-(4-((4-((2-Isopropyl-4-phenylthiazol-5-yl)oxy)pyridin-2-yl)amino)pyridin-2-yl)propan-2-ol] | < 100 nM | > 100 nM
27 | CC(C)c1nc(-c2ccccc2)c(Oc2ccnc(Nc3ccc(C(C)(C)O)nc3)c2)s1 [A-224, 2-(5-((4-((2-Isopropyl-4-phenylthiazol-5-yl)oxy)pyridin-2-yl)amino)pyridin-2-yl)propan-2-ol] | < 100 nM | > 100 nM
28 | CNC(=O)c1cccc(Nc2cc(Oc3sc(C(C)C)nc3-c3ccccc3)ccn2)n1 [A-225, 6-((4-((2-Isopropyl-4-phenylthiazol-5-yl)oxy)pyridin-2-yl)amino)-N-methylpicolinamide] | < 100 nM | < 100 nM
29 | CC(C)c1nc(-c2ccccc2)c(Oc2ccnc(Nc3cccc(C(N)=O)n3)c2)s1 [A-226, 6-((4-((2-Isopropyl-4-phenylthiazol-5-yl)oxy)pyridin-2-yl)amino)picolinamide] | < 100 nM | > 100 nM
30 | CC(C)c1nc(-c2ccccc2)c(Oc2ccnc(Nc3ccc(C(N)=O)cn3)c2)s1 [A-227, 6-((4-((2-Isopropyl-4-phenylthiazol-5-yl)oxy)pyridin-2-yl)amino)nicotinamide] | < 100 nM | < 100 nM
31 | CNC(=O)c1ccc(Nc2cc(Oc3sc(C(C)C)nc3-c3ccccc3)ccn2)nc1 [A-228, 6-((4-((2-Isopropyl-4-phenylthiazol-5-yl)oxy)pyridin-2-yl)amino)-N-methylnicotinamide] | < 100 nM | < 100 nM
32 | CNC(=O)c1ccc(Nc2cc(Oc3sc(C(C)C)nc3-c3ccccc3)ccn2)cc1 [A-229, 4-((4-((2-Isopropyl-4-phenylthiazol-5-yl)oxy)pyridin-2-yl)amino)-N-methylbenzamide] | < 100 nM | > 100 nM
33 | CC(C)c1nc(-c2ccccc2)c(Oc2ccnc(Nc3cccc(C(=O)O)c3)c2)s1 [A-230, 3-((4-((2-Isopropyl-4-phenylthiazol-5-yl)oxy)pyridin-2-yl)amino)benzoic acid] | < 100 nM | > 100 nM
